Legend:
HIV-1 strain IIIb [1] = assay: Viral intake and release: cell-free HIV-1 taken up by epithelial monolayer, supernatant titrated on MT4 cells; format: cell-based
Protocol: Epithelial cells were obtained from biopsies of the gingiva of a healthy donor. The biopsies were washed several times with phosphate-buffered saline and cultured after trypsinization in Dulbecco modified Eagle medium containing 10% fetal calf serum (FCS). Fibroblast growth was suppressed by the addition of recombinant epidermal growth factor (10 μg/liters Sigma, Deisenhofen, Germany) to the culture medium. The epithelial character of the primary cells and the formation of tight junctions were confirmed morphologically by electron microscopy.
(§1) HIV-1 strain IIIb (1,8×10^4 50% tissue culture infective doses [TCID50/ml]) harvested from HIV-1 infected H9 cells was cleared from all debris by centrifugation (10 min. 200×g) and filtered through a 0,2 μm pore size filter membrane. The cell-free virus was diluted 1:10 with Hanks buffer and was placeed in the apical compartment (for details see below). After a 45 min incubation, medium from the lower compartment was harvested. The amount of infectious HIV-1 in the basal chamber of the culture unit was determined by a standard tritation assay Tritation of HIV was performed in triplicate in 24-well tissue culture plates on MT 4 cells seeded at a concentration of 2×10^4/ml. Samples were diluted serially (1:10) in culture medium (RPMI 1640 supplemented with 10% FCS and 5% glutamine). The titration was evaluated between 10 and 14 days postinfection when a prominent cytopathic effect (CPE) was visible. Medium was replaced twice a week with cells being diluted as required. Values of TCID50 per milliliter were determined as described in Reed C. J. et al., 1938, Am. J. Hyg., 27, 494.497. All experiments were performed in triplicate.
HIV-1 strain IIIb (1,8×10^5 TCID50/ml) was placed on epithelial cells (10^6/petri dish). […] After a 1-h incubation, the cells were washed three times with trysin (0,25%) and incubated for 10 min at 37° C. with trypsin solution to inactivate all virus particles adsorbed at the cell surface. The cells were harvested and subcultured for different incubation times (see. Table 1). Subsequently, the cell-free supermatant of each subculture was titrated on MT4 cells as described above.
For the data in Table 1 HIV-1 strain IIIb (1,8×10^4 TCID50/ml) was placed on epithelial cells (10^6/petri dish) with or without inhibitors. After a 1-h incubation the cells were treated with trypsin to inactivate all extracellular HIV particles. Cells were incubated with fresh medium and the supernatants were harvested at different time points. Infectious virus in the supernatant was titrated on MT4 cells (see Materials and Methods). All experiments were performed in triplicate. The differences between the infectious titers with and without inhibitors are highly significant for all incubation times (P<0.001 by the Mann Whitney U test).

HIV-1 strain IIIb [2] = assay: Viral transepithelial transport in two-compartment culture system; format: cell-based; conditions: 45 min. incubation; for amount of infectious HIV 1 in the basal compartment: without inhibitor 10^3
Protocol: For transepithelial transport experiments, primary epitheilal cells (10^4/ml) were grown on a polycarbonate filter membrane (9 mm diameter 3,0 μm pore diameter, Becon Dickinson) separating a basal and an apical chamber and cultivated for 10 days until confluence was observed. The development of an epithelial monolayer was examined by confocal laser microscopy. To further test for confluence a fluorescein solution (0,2 mg/ml) or fluorescent paricles (10^6 particles/ml each particle 0,1 μm in diameter) were added to the apical chamber and fluorescence activity in the basal chambers was measured after 45 min of incubation at 4° C. to inhibit cell membrane diffusion. For calibration of paracellular diffusion membranes were covered with a layer of 15% polyacrylamide gel leaving free circular areas by placing small cylinders of defined size on the filter before gel casting. Fluorescence activity which diffused from the apical to the basal chamber through different areas of uncovered epithelial cells was measured after the 45 min. incubation.
as §1
The HIV-1 specificity of the CPE in MT4 cells was confirmed by determination of p24 core protein content by a p24 antigen capture assay (Coulter). […] Experiments were done in triplicate.

[3] = test system: transport of gp120 coated particles through the epithelial monolayer; assay: Transepithelial transport of gp120-coated fluorescent particles; format: cell-based, human; conditions: for transport of gp120-coated particles, % of the level for unstimulated cells: FSK- and IBMX-treated cells
Excerpt: For transepithelial transport studies gp120 was covalently coupled to monodispersed carboxylated fluorescent microparticles (0,1 μm in diameter; Polysciences, Warlington, Pa.) as described previously (Molday R. S., 1975, J. Cell Biol., 64, 75-88). The active groups of the control beads and the remaining gp120 coated beads were blocked with glycine. The attachment of gp120 to the fluoresent particles was quantified by measuring the binding of a monoclonal anti-HIV gp120 antibody to the beads.
The gp120-coated particles were diluted (10^5 partices/ml) in Hanks buffer and placed in the apical chamber after the epithelial cells were washed three times with Hanks buffer. The apical chamber was transferred into a new basal chamber, and Hanks buffer was changed after 10, 40, 90 min of incubation. The buffer harvested at the indicated time points was centrifuged (14.000×g for 15 min), the pellet was resuspended and the fluorescence activity was measured. A combination of forskolin (FSK 10 μM ) and 3-isobutyl-1-methyl-xantin (IBMX, 10 μm) was used to study the effect of cyclic AMP (cAMP) and epithelial transport. Preincubation of the epithelial cells for 2 h increased the intracellular cAMP level eightfold (cAMP immunoassay: Biomol, Plymouth Meeting, Pa.). Glycine-coated microparticles were used as the control for nonspecific paracellular flow under the experimental conditions: the fluorescence of the controls was subtracted from the fluorescence-activities found in the respective experiments with gp120-coated particles.
After incubation for 10, 40 and 90 min at 37° C., the solution in the basal chamber was changed and the fluorescence activity was measured as described above.
To increase the amount of high-mannose-type glycans on the epithelial cells, cells were preincubated for 2 h with 10 mM desoxymannojirimycin (Fuhrmann U. E., 1984, Nature, 307, 755-788). To control the increase of high-mannose-type glycan expression, the filter membrane was cut and placed in 300 μl of lysis buffer (0,2 M Tris-HCl, 2% SDS, 0,1% dithiothreitol). […]

Mucin
HIV concn in the supernatant after treatm. (HIV-1 strain IIIb [1]; Mucin (1 mM), 60 min. after trypsin treatm.): 10^1 TCID50/ml
HIV concn in the supernatant after treatm. (HIV-1 strain IIIb [1]; Mucin (1 mM), 120 min. after trypsin treatm.): 10^1 TCID50/ml
HIV concn in the supernatant after treatm. (HIV-1 strain IIIb [1]; Mucin (1 mM), 160 min after trypsin treatm.): 10^1 TCID50/ml
HIV concn in the supernatant after treatm. (HIV-1 strain IIIb [1]; Mucin (1 mM), 24 h after trypsin treatm.): 10^1 TCID50/ml
inhibition of viral uptake and release of cell-free HIV-1 (in words) (HIV-1 strain IIIb [1]; Table 1): significantly inhibit
amount of infectious HIV 1 in the basal compartment (HIV-1 strain IIIb [2]; mucin (30 mg/ml per method)): 10^2 TCID50/ml

mannan
HIV concn in the supernatant after treatm. (HIV-1 strain IIIb [1]; Mannan (5 mM), 60 min. after trypsin treatm.): 10^0 TCID50/ml
HIV concn in the supernatant after treatm. (HIV-1 strain IIIb [1]; Mannan (5 mM), 120 min. after trypsin treatm.): 10^1 TCID50/ml
HIV concn in the supernatant after treatm. (HIV-1 strain IIIb [1]; Mannan (5 mM), 160 min after trypsin treatm.): 10^1 TCID50/ml
HIV concn in the supernatant after treatm. (HIV-1 strain IIIb [1]; Mannan (5 mM), 24 h after trypsin treatm.): 10^1 TCID50/ml
reduction of the amount of infectious HIV 1 in the basal compartment (HIV-1 strain IIIb [2]; mannan (5 mM)): 1 order of magnitude
amount of infectious HIV 1 in the basal compartment (HIV-1 strain IIIb [2]; preincubation with mannan (5 mM)): 10^2 TCID50/ml
transport of gp120-coated particles, % of the level for unstimulated cells ([3]; mannan 5 mg/ml final concentration): about 50%

CO[C@H]1O[C@H](CO)[C@@H](O)[C@H](O)[C@@H]1O [aMMP, α-methyl-mannopyramoside]
HIV concn in the supernatant after treatm. (HIV-1 strain IIIb [1]; aMMP (100 mM), 60 min. after trypsin treatm.): 10^1 TCID50/ml
HIV concn in the supernatant after treatm. (HIV-1 strain IIIb [1]; aMMP (100 mM), 120 min. after trypsin treatm.): 10^1 TCID50/ml
HIV concn in the supernatant after treatm. (HIV-1 strain IIIb [1]; aMMP (100 mM), 160 min after trypsin treatm.): 10^1 TCID50/ml
HIV concn in the supernatant after treatm. (HIV-1 strain IIIb [1]; aMMP (100 mM), 24 h after trypsin treatm.): 10^1 TCID50/ml
reduction of the amount of infectious HIV 1 in the basal compartment (HIV-1 strain IIIb [2]; aMMP (100 mM)): 1 order of magnitude
amount of infectious HIV 1 in the basal compartment (HIV-1 strain IIIb [2]; preincubation with aMMP (100 mM)): 10^2 TCID50/ml
transport of gp120-coated particles, % of the level for unstimulated cells ([3]; aMMP 100 mM final concentration): about 50%

OC[C@H]1NC[C@@H](O)[C@@H](O)[C@@H]1O [desoxymannojirimycin, reference compound]
effect on the cAMP-stimulated increase of particles in the basal compartment (in words) ([3]; 2 h preincubation with 10 mM desoxymannojirimycin, FSK/IBMX stimulated cells): further augmentation
